Reference: patent publication US20260062443A1 (ALEXION PHARMACEUTICALS, INC., priority 2022, published 2026)

Target: T1, Human complement C1s enzyme (Homo sapiens, UniProt P09871)
T1 sequence (P09871 438-688 limits assumed): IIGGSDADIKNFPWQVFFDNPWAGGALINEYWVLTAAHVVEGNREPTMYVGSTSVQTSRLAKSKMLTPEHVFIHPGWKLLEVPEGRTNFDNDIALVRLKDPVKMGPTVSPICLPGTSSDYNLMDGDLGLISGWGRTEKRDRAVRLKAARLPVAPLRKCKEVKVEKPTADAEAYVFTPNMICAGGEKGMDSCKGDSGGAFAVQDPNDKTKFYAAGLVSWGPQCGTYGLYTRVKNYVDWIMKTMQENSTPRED
T1 sequence (P09871 16-437 partner limits assumed): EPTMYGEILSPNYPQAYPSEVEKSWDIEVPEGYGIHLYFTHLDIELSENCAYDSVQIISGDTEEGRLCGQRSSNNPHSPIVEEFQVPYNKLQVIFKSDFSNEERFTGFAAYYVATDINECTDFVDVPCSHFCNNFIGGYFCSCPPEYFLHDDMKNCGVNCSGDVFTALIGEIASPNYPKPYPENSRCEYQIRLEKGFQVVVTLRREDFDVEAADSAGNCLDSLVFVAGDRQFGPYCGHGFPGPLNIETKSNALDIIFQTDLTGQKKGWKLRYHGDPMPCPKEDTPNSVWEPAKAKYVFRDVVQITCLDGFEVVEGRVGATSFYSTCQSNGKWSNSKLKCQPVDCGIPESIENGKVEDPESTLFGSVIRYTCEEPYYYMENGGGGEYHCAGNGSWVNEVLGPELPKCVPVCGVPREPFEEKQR
Test: Human C1s enzyme assay
Format: biochemical
Conditions: human complement C1s enzyme 1.16 nM, substrate Z-L-Lys-SBzl 100 μM, 5 min preincubation; read-out: IC50 (Stars), C1s Inhibiting Activity
Description: Other standard complement assays are also available.
Human complement C1s enzyme (purified from human serum, Complement Technology, Inc.) at 1.16 nM final concentration was incubated with test compound at various concentrations for 5 min at room temperature in 50 mM Tris, 1 M NaCl, pH 7.5. A synthetic substrate Z-L-Lys-SBzl and DTNB (Ellman's reagent) were added to final concentrations of 100 μM each. Absorbance at 405 nm (A405) was recorded at 30 second intervals for 30 min using a microplate spectrophotometer. IC50 values were calculated by nonlinear regression of complement C1 s reaction rates as a function of test compound concentration.
ND indicates a compound for which the IC50 value is not determined.

CO[C@@H]1CCN(C(=O)CNC(=O)c2ccc3c(c2)Oc2ccccc2S3)[C@@H]1C(=O)NCc1cc2cnccc2[nH]1 [Compound 285]
IC50: > 1000 nM

C[C@@H](NC(=O)[C@@H]1C[C@@H](OC(F)F)CN1C(=O)CNC(=O)c1ccc(Oc2ccccc2)cc1)c1cc(B(O)O)cs1 [Compound 189, (5-((R)-1-((2S,4R)-4-(difluoromethoxy)-1-((4-phenoxybenzoyl)glycyl)pyrrolidine-2-carboxamido)ethyl)thiophen-3-yl)boronic acid]
IC50: > 1000 nM

O=C(NCC(=O)N1CC2(C[C@H]1C(=O)NCc1cc3cnccc3[nH]1)OCCO2)c1ccc(Oc2ccccc2)cc1 [Compound 32, (S)-N-((1H-pyrrolo[3,2-]pyridin-2-yl)methyl)-7-((4-phenoxybenzoyl)glycyl)-1,4-dioxa-7-azaspiro[4.4]nonane-8-carboxamide]
IC50: < 100 nM

CC(c1cccc(F)c1)c1ccc(C(=O)NCC(=O)N2CC3(C[C@H]2C(=O)NCc2cc4cnccc4[nH]2)OCCO3)s1 (stereo partly drawn) [Compound 357, (8S)-N-((1H-pyrrolo[3,2-c]pyridin-2-yl)methyl)-7-((5-(1-(3-fluorophenyl)ethyl)thiophene-2-carbonyl)glycyl)-1,4-dioxa-7-azaspiro[4.4]nonane-8-carboxamide]
IC50: 100 to 1000 nM

O=C(NCC(=O)N1C[C@@](F)(CF)C[C@H]1C(=O)NCc1cc2cnccc2[nH]1)c1ccc2c(c1)-c1ccccc1C2(F)F [Compound 6, (2S,4R)-N-((1H-pyrrolo[3,2-c]pyridin-2-yl)methyl)-1-((9,9-difluoro-9H-fluorene-3-carbonyl)glycyl)-4-fluoro-4-(fluoromethyl)pyrrolidine-2-carboxamide]
IC50: < 100 nM

C[C@@H](NC(=O)[C@@H]1C[C@]2(CO)C[C@@H]2N1C(=O)CNC(=O)c1ccc2c(c1)Oc1ccccc1S2)c1cc2cnccc2[nH]1 [Compound 161, (1S,3S,5R)-N-((R)-1-(1H-pyrrolo[3,2-c]pyridin-2-yl)ethyl)-5-(hydroxymethyl)-2-((phenoxathiine-3-carbonyl)glycyl)-2-azabicyclo[3.1.0]hexane-3-carboxamide]
IC50: < 100 nM

C[C@@H](NC(=O)[C@@H]1C[C@H](c2ncco2)CN1C(=O)CNC(=O)c1ccc2c(c1)Oc1ccccc1S2)c1cc2cnccc2[nH]1 [Compound 178, (2S,4S)-N-((R)-1-(1H-pyrrolo[3,2-c]pyridin-2-yl)ethyl)-4-(oxazol-2-yl)-1-((phenoxathiine-3-carbonyl)glycyl)pyrrolidine-2-carboxamide]
IC50: < 100 nM

O=C(NCC(=O)N1C[C@H](OC(F)F)C[C@H]1C(=O)NCc1cnc2[nH]ccc2c1)c1ccc2c(c1)Oc1ccccc1S2 [Compound 247]
IC50: 100 to 1000 nM

O=C(NCC(=O)N1CCC[C@H]1C(=O)NCc1cc2cnccc2[nH]1)c1ccc2c(c1)Oc1ccccc1S2 [Compound 188, (S)-N-((1H-pyrrolo[3,2-c]pyridin-2-yl)methyl)-1-((phenoxathiine-3-carbonyl)glycyl)pyrrolidine-2-carboxamide]
IC50: < 100 nM

C[C@@]12C[C@@H]1N(C(=O)CNC(=O)CCCOc1ccccc1)[C@H](C(=O)N[C@@H]1CCN(Cc3c[nH]cn3)C1=O)C2 [Compound 61, (1S,3S,5S)-N-((R)-1-((1H-imidazol-4-yl)methyl)-2-oxopyrrolidin-3-yl)-5-methyl-2-((4-phenoxybutanoyl)glycyl)-2-azabicyclo[3.1.0]hexane-3-carboxamide]
IC50: > 1000 nM

C[C@@H](NC(=O)[C@@H]1C[C@]2(C)C[C@@H]2N1C(=O)CNC(=O)c1ccc(-c2ccc(F)cc2F)cc1)c1cc2cnccc2[nH]1 [Compound 147, (1S,3S,5S)-N-((R)-1-(1H-pyrrolo[3,2-c]pyridin-2-yl)ethyl)-2-((2′,4′-difluoro-[1,1′-biphenyl]-4-carbonyl)glycyl)-5-methyl-2-azabicyclo[3.1.0]hexane-3-carboxamide]
IC50: 100 to 1000 nM

COC[C@@]1(F)C[C@@H](C(=O)N[C@H](C)c2cc3cnccc3[nH]2)N(C(=O)CNC(=O)c2ccc(-c3ccc(F)cc3F)cc2)C1 [Compound 70, (2S,4R)-N-((R)-1-(1H-pyrrolo[3,2-c]pyridin-2-yl)ethyl)-1-((2′,4′-difluoro-[1,1′-biphenyl]-4-carbonyl)glycyl)-4-fluoro-4-(methoxymethyl)pyrrolidine-2-carboxamide]
IC50: > 1000 nM

COC[C@@H]1C[C@@H](C(=O)N[C@H](C)c2cc3cnccc3[nH]2)N(C(=O)CNC(=O)c2ccc3c(c2)Oc2ccccc2S3)C1 [Compound 149, (2S,4R)-N-((R)-1-(1H-pyrrolo[3,2-c]pyridin-2-yl)ethyl)-4-(methoxymethyl)-1-((phenoxathiine-3-carbonyl)glycyl)pyrrolidine-2-carboxamide]
IC50: < 100 nM

C[C@@]12C[C@@H]1N(C(=O)CNC(=O)CCCOc1ccccc1)[C@H](C(=O)NC1(c3ccc4c(c3)CNCC4)CC1)C2 [Compound 62, (1S,3S,5S)-5-methyl-2-((4-phenoxybutanoyl)glycyl)-N-(1-(1,2,3,4-tetrahydroisoquinolin-7-yl)cyclopropyl)-2-azabicyclo[3.1.0]hexane-3-carboxamide]
IC50: > 1000 nM

CC(C)(C)c1ccc(Oc2cccc(C(=O)NCC(=O)N3C[C@H](OC(F)F)C[C@H]3C(=O)NCc3cc4cnccc4[nH]3)c2)cc1 [Compound 273, (2S,4R)-N-((1H-pyrrolo[3,2-c]pyridin-2-yl)methyl)-1-((3-(4-(tert-butyl)phenoxy)benzoyl)glycyl)-4-(difluoromethoxy)pyrrolidine-4-carboxamide]
IC50: < 100 nM

Cc1ccc2c(c1)Sc1ccc(C(=O)NCC(=O)N3C[C@H](OC(F)F)C[C@H]3C(=O)N[C@H](C)c3cc4cnccc4[nH]3)cc1O2 [Compound 286, (2S,4R)-N-((R)-1-(1H-pyrrolo[3,2-c]pyridin-2-yl)ethyl)-4-(difluoromethoxy)-1-((8-methylphenoxathiine-3-carbonyl)glycyl)pyrrolidine-2-carboxamide]
IC50: < 100 nM

Cc1ccc(Oc2cccc(C(=O)NCC(=O)N3C[C@H](OC(F)F)C[C@H]3C(=O)NCc3cc4cnccc4[nH]3)c2)s1 [Compound 366, (2S,4R)-N-((1H-pyrrolo[3,2-c]pyridin-2-yl)methyl)-4-(difluoromethoxy)-1-((3-((5-methylthiophen-2-yl)oxy)benzoyl)glycyl)pyrrolidine-2-carboxamide]
IC50: < 100 nM

CN1CCc2sc(CNC(=O)[C@@H]3C[C@@H](OC(F)F)CN3C(=O)CNC(=O)c3ccc4c(c3)Oc3ccccc3S4)cc2C1 [Compound 347, (2S,4R)-4-(difluoromethoxy)-N-((5-methyl-4,5,6,7-tetrahydrothieno[3,2-c]pyridin-2-yl)methyl)-1-((phenoxathiine-3-carbonyl)glycyl) pyrrolidine-2-carboxamide]
IC50: > 1000 nM

Cc1ccsc1Oc1cccc(C(=O)NCC(=O)N2C[C@H](OC(F)F)C[C@H]2C(=O)NCc2cc3cnccc3[nH]2)c1 [Compound 385, (2S,4R)-N-((1H-pyrrolo[3,2-c]pyridin-2-yl)methyl)-4-(difluoromethoxy)-1-((3-((3-methylthiophen-2-yl)oxy)benzoyl)glycyl) pyrrolidine-2-carboxamide]
IC50: < 100 nM

O=C(NCC(=O)N1CC2(C[C@H]1C(=O)NCc1cc3cnccc3s1)OCCO2)c1cccc(Oc2ccc(F)cc2)c1 [Compound 255, (S)-7-((3-(4-fluorophenoxy)benzoyl)glycyl)-N-(thieno[3,2-c]pyridin-2-ylmethyl)-1,4-dioxa-7-azaspiro[4.4]nonane-8-carboxamide]
IC50: 100 to 1000 nM
